Test results: patent US20260272895A1, “METHODS AND KITS FOR DELIVERY OF COMPOUNDS INTO CELLS” (Yale University, priority 2023, published 2026)
Entries after “also recorded” stand apart in the source; their conditions may differ.

Key:
[1] = tested on: brain endothelium / blood brain barrier; assay: In vivo two-photon imaging of mouse brain cortex after intravenous administration
Procedure: Briefly, animals are anaesthetized via intraperitoneal injections of ketamine/xylazine or via inhaled isoflurane. A region of the skull (3×3 mm) is gently removed with a high-speed drill and the underlying dura is removed. A small glass coverslip is placed over the skull to allow long term optical access for in vivo imaging. Labeling with fluorescent dyes is performed either via intravenous injections or topically application to the cortical surface for 20 min prior to glass cover placement. After recovery, in vivo images are acquired using a two-photon microscope (Bruker Technologies) equipped with a multimodal (fixed wavelength 1040 nm and tunable wavelength) InSight X3 two-photon laser (Spectra Physics) and 20× water immersion objective (Zeiss 1.0N.A.). The two-photon laser is appropriately tuned to excite particular fluorescent dyes and proteins as needed. In selected cases, following in vivo imaging, mice will be sacrificed and perfused for follow up immunohistochemistry and high-resolution confocal imaging (Leica SP8) to further confirm colocalization of dyes and cells expressing particular transporters.
One-month-old wild-type mice were anesthetized using a ketamine/xylazine solution at doses of 100 mg/kg and 10 mg/kg, respectively. The fur around the skull area was shaved, and buprenex (0.1 mg per kg) and carprofen (5 mg per kg) were administered subcutaneously. Mice were kept on a heating pad at 37° C., and anesthesia was periodically monitored. The skin was treated with povidone-iodine solution, followed by cleaning with ethanol, and eye ointment was applied. A small skin section was excised to expose the skull. Thinning of the skull was performed in a circular area, followed by delicately lifting of the remaining skull without harm to the underlying brain. Within the circular region, the dura was gently removed using fine forceps, and a 4 mm cover glass was softly pressed onto the brain surface and affixed to the skull. Fluorescent dyes were applied either through intravenous injections or topically to the cortical surface for 20 minutes before placing the glass cover. A customized head bar was attached either by adhesive (for acute imaging) or permanently implanted (using dental cement, for chronic imaging) onto the skull. Mice were imaged under a two-photon microscope (Prairie Technologies) with a mode-locked MaiTai tunable laser (Spectra Physics). Imaging was performed with a 20× water immersion objective (Zeiss, 1.0NA). Images were captured at depths up to 300 μm from the pial surface using excitation wavelengths ranging from 750 to 950 nm as previously described. Mice undergoing chronic imaging received a recovery period on a heating pad post-surgery, and buprenex (0.1 mg per kg) and carprofen (5 mg per kg) were administered for 3 days. […]

[2] = tested on: SLC2A3; assay: Compound uptake in HEK293 expressing solute carrier family 2 member 3; assay type: cell-based
Procedure: HEK293 cells are cultured and seeded at ~60% confluency in 24-well plates and are transiently transfected with 250 ng of a candidate transporter and 1 μL transfection reagent (JetPRIME). After 2 days, cells are washed and novel fluorescent probes at different concentrations are added to the transport medium and incubated at 37° C., for at least 30 minutes. To terminate the transport, cells are washed with PBS and fixed with 4% paraformaldehyde. The colocalization of probe uptake and cells expressing the transporters is investigated by immunostaining the transporter which has a fused FLAG tag, using anti-FLAG 488. Before confocal imaging, nuclei are labeled with Hoechst 33342 and cells are mounted and imaged on a Leica SP8 confocal microscope.
For in vitro experiments, HEK293 cells were cultured and seeded in 24-well plates, reaching approximately 60% confluency. For transient transfection, 250 ng of a candidate transporter plasmid and 1 μL of transfection reagent (JetPRIME) were added to the cells. After a 2-day incubation period, the cells were washed, and novel fluorescent probes were introduced into the transport medium at various concentrations. The cells were then incubated at 37° C., for a minimum of 30 minutes to allow for uptake. To stop the transport process, the cells were washed with PBS and fixed using 4% paraformaldehyde. […]

[3] = tested on: cancer cells in freshly excised breast surgical tissue; assay: Injection into freshly excised cancerous breast tissue
Description: Injection of compound 1 into freshly excised cancerous breast tissue leads to rapid entry into cancer cells (red). Blue represents nuclear labeling with Hoechst dye.

[4] = tested on: NIH3T3 cells; assay: Assessment of pharmacological effects in vitro in NIH3T3 cells (tubulin staining, multinucleated cells); assay type: cell-based
Description: Confocal microscopy of the different treatment groups allowed us to visualize Hoechst dye-labeled nuclei to quantify the proportion of cells with multinucleated phenotype which is known to occur with Colchicine treatments.

[5] = Assessment of in vivo compound toxicity (fur regrowth, body weight); parameters: species or system mouse; settings: intradermal injection (fur regrowth) and daily intraperitoneal injection for 5 days (body weight)
Procedure: To evaluate systemic toxicity, mouse weight was monitored daily, focusing on P20 mice in their active growth stage. For local toxicity assessment, the mouse fur was shaved to stimulate follicular stem cell division and subsequent hair regrowth. Compounds were injected intradermally on the right lower back quadrant and the left quadrant was used as a control. Hair regrowth was monitored for 12 days with serial photography followed by quantification using NIH Image J Plot Profile Plug-In, yielding pixel intensity profiles. Changes in pixel intensity where compared between injected (right quadrant) versus noninjected (left quadrant) by using the following formula:
(Noninjected intensity−Injected intensity)/Noninjected intensity×100%. (Eq. 1)

[6] = tested on: brain cell types; assay: In vivo two-photon imaging of mouse cortex after topical cortical administration of fluorophores; settings: topical cortical administration 50 μM, Tie2-GFP endothelial reporter mice

SMILES: O=S(=O)([O-])c1cc(S(=O)(=O)O)ccc1C1=c2cc3c4c(c2Oc2cc(Br)ccc21)CCC[N+]=4CCC3 [Compound 1, 2-(12-bromo-1,2,3,5,6,7-hexahydrochromeno[2,3-f]pyrido[3,2,1-ij]quinolin-4-ium-9-yl)-5-sulfobenzenesulfonate]
- entry into non-endothelial cells ([1]; 2 hours post intravenous injection): does not enter non-endothelial cells; also recorded: does not enter other cells except for endothelial cells
- brain endothelial labeling after intravenous administration ([1]; IV 50 microliters at 20 mg/ml, 10 min to 130 min post injection): marked uptake of the compound into the capillary endothelial wall; also recorded: robust brain endothelial labeling
- interstitial space fluorescence / blood brain barrier crossing ([1]; IV, 10 min vs 130 min or 2 hours post injection): located in the brain interstitial space; also recorded: marked increase in the interstitial space fluorescence
- punctate labeling in the endothelium ([1]; lower concentration IV in 120 μL of PBS, around 2 hours post injection): bright punctate labeling becomes apparent in the endothelium
- uptake on expression of SLC2A3 [2]: does not induce uptake
- entry into breast cancer cells [3]: readily enters cancer cells

SMILES: COc1cc2c(c(OC)c1OC)-c1ccc(OC)c(=O)cc1C(NS(=O)(=O)c1ccc(-c3c4ccc(N(C)C)cc4[o+]c4cc(N(C)C)ccc34)c(S(=O)(=O)[O-])c1)CC2 (centres unmarked) [Compound 47, 2-(3,6-bis(dimethylamino)xanthylium-9-yl)-5-(N-(1,2,3,10-tetramethoxy-9-oxo-5,6,7,9-tetrahydrobenzo[a]heptalen-7-yl)sulfamoyl)benzenesulfonate]
- preservation of pharmacological properties after conjugation ([4]; NIH3T3 cells): retains its pharmacological properties
- cell morphology / multinucleated cells ([4]; NIH3T3 cells (FIG. 17A)): changes in cell morphology and presence of multinucleated cells
- pattern of α-tubulin immunofluorescence ([4]; NIH3T3 cells, 12 hours, varying concentrations (FIG. 17A)): diffuse labeling pattern
- local and systemic toxicity [5]: markedly reduced local and systemic toxicity
- colocalization with GFP labeling [6]: precise colocalization between Colchicine-eEDiTS and GFP labeling
